Data published in patent publication US10787452B2 (Vertex Pharmaceuticals Incorporated, priority 2012, dated 2020).
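Further: compound concentration needed to lower the Cisplatin-alone IC50 by a set fold.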

These compounds were tested on HCT116 colorectal cancer cells (assay: Cisplatin sensitization assay (96 h cell viability MTS)). Settings: 96 h MTS, compound plus Cisplatin.
Format: cell-based
In short: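 Viability is measured with MTS reagent, added after 96 h and developed for 1 h at 37° C. Beforehand, cells receive compound and cisplatin simultaneously in a concentration matrix of 2-fold serial dilutions starting at 10 μM final.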
With CO[C@H]1CCN(C(=O)C2CCN(c3c(F)cncc3NC(=O)c3c(N)nn4cc(F)cnc34)CC2)C1 [I-G-99, (S)-2-amino-6-fluoro-N-(5-fluoro-4-(4-(3-methoxypyrrolidine-1-carbonyl)piperidin-1-yl)pyridin-3-yl)pyrazolo[1,5-a]pyrimidine-3-carboxamide] the “Cisplatin Sensitization Assay” value was “+++ (Compounds with a Cisplatin sensitization value of <0.02 μM are marked with “+++.”)”. In the case of CNCCCN(C)C(=O)C1CCN(c2c(F)cncc2NC(=O)c2c(N)nn3cc(F)cnc23)CC1 [I-G-17], the “Cisplatin Sensitization Assay” value is reported as “+ (Compounds with a Cisplatin sensitization value >0.2 μM but <5 μM are marked with “+.”)”. For Nc1nn2cc(F)cnc2c1C(=O)Nc1cnccc1C1CCN(S(=O)(=O)C2CC2)CC1 [I-C-47, 2-amino-N-(4-(1-(cyclopropylsulfonyl)piperidin-4-yl)pyridin-3-yl)-6-fluoropyrazolo[1,5-a]pyrimidine-3-carboxamide], the “Cisplatin Sensitization Assay” value was “+++ (Compounds with a Cisplatin sensitization value of <0.02 μM are marked with “+++.”)”. For CN1CCN(c2c(F)cncc2NC(=O)c2c(N)nn3cc(F)cnc23)CC1 [I-N-15, 2-amino-6-fluoro-N-(5-fluoro-4-(4-methylpiperazin-1-yl)pyridin-3-yl)pyrazolo[1,5-a]pyrimidine-3-carboxamide], the “Cisplatin Sensitization Assay” value was “+++ (Compounds with a Cisplatin sensitization value of <0.02 μM are marked with “+++.”)”. Nc1nn2cc(F)cnc2c1C(=O)Nc1cnccc1O[C@@H]1CN2CCC1CC2 [I-O-10, (S)-2-amino-6-fluoro-N-(4-(quinuclidin-3-yloxy)pyridin-3-yl)pyrazolo[1,5-a]pyrimidine-3-carboxamide] was tested, and the “Cisplatin Sensitization Assay” value was “+++ (Compounds with a Cisplatin sensitization value of <0.02 μM are marked with “+++.”)”. With Cn1ncnc1-c1ccncc1NC(=O)c1c(N)nn2cc(F)cnc12 [I-C-65, 2-amino-6-fluoro-N-(4-(1-methyl-1H-1,2,4-triazol-5-yl)pyridin-3-yl)pyrazolo[1,5-a]pyrimidine-3-carboxamide] the “Cisplatin Sensitization Assay” value was “++ (Compounds with a Cisplatin sensitization value >0.02 μM but <0.2 μM are marked with “++.”)”. For Cc1ccncc1NC(=O)c1c(N)nn2cc(Cl)cnc12 [I-C-2, 2-amino-6-chloro-N-(4-methylpyridin-3-yl)pyrazolo[1,5-a]pyrimidine-3-carboxamide], the “Cisplatin Sensitization Assay” value was “++ (Compounds with a Cisplatin sensitization value >0.02 μM but <0.2 μM are marked with “++.”)”. In the case of Nc1nn2cc(F)cnc2c1C(=O)Nc1cncc(F)c1C1CCN(C2COC2)CC1 [I-C-13, 2-amino-6-fluoro-N-(5-fluoro-4-(1-(oxetan-3-yl)piperidin-4-yl)pyridin-3-yl)pyrazolo[1,5-a]pyrimidine-3-carboxamide], the “Cisplatin Sensitization Assay” value is reported as “++ (Compounds with a Cisplatin sensitization value >0.02 μM but <0.2 μM are marked with “++.”)”. For N#CCc1cnc2c(C(=O)Nc3cnccc3OC3CCCCC3)c(N)nn2c1 [I-O-39, 2-amino-6-(cyanomethyl)-N-(4-(cyclohexyloxy)pyridin-3-yl)pyrazolo[1,5-a]pyrimidine-3-carboxamide], the “Cisplatin Sensitization Assay” value was “+++ (Compounds with a Cisplatin sensitization value of <0.02 μM are marked with “+++.”)”. In the case of CS(=O)(=O)C1CCCN(c2ccncc2NC(=O)c2c(N)nn3cc(F)cnc23)C1 (stereo not shown) [I-N-221, 2-amino-6-fluoro-N-(4-(3-(methylsulfonyl)piperidin-1-yl)pyridin-3-yl)pyrazolo[1,5-a]pyrimidine-3-carboxamide], the “Cisplatin Sensitization Assay” value is reported as “++ (Compounds with a Cisplatin sensitization value >0.02 μM but <0.2 μM are marked with “++.”)”. In the case of COCCN1CCC[C@H](Oc2ccncc2NC(=O)c2c(N)nn3cc(Cl)cnc23)C1 [I-O-67, (S)-2-amino-6-chloro-N-(4-((1-(2-methoxyethyl)piperidin-3-yl)oxy)pyridin-3-yl)pyrazolo[1,5-a]pyrimidine-3-carboxamide], the “Cisplatin Sensitization Assay” value is reported as “++ (Compounds with a Cisplatin sensitization value >0.02 μM but <0.2 μM are marked with “++.”)”. With Nc1nn2cc(Cl)cnc2c1C(=O)Nc1cnccc1N1CCC(N2CCC3(COC3)C2)CC1 [I-N-99, N-(4-(4-(2-oxa-6-azaspiro[3.4]octan-6-yl)piperidin-1-yl)pyridin-3-yl)-2-amino-6-chloropyrazolo[1,5-a]pyrimidine-3-carboxamide] the “Cisplatin Sensitization Assay” value was “+++ (Compounds with a Cisplatin sensitization value of <0.02 μM are marked with “+++.”)”. With Nc1nn2cc(F)cnc2c1C(=O)Nc1cncc(Cl)c1N1CCC(O)C1 (stereo not shown) [I-N-284, 2-amino-N-(5-chloro-4-(3-hydroxypyrrolidin-1-yl)pyridin-3-yl)-6-fluoropyrazolo[1,5-a]pyrimidine-3-carboxamide] the “Cisplatin Sensitization Assay” value was “+++ (Compounds with a Cisplatin sensitization value of <0.02 μM are marked with “+++.”)”. In the case of Nc1nn2cc(F)cnc2c1C(=O)Nc1cncc(F)c1N1CCC(C(=O)N2CCN3CCCC3C2)CC1 (stereo not shown) [I-G-10, 2-amino-6-fluoro-N-(5-fluoro-4-(4-(octahydropyrrolo[1,2-a]pyrazine-2-carbonyl)piperidin-1-yl)pyridin-3-yl)pyrazolo[1,5-a]pyrimidine-3-carboxamide], the “Cisplatin Sensitization Assay” value is reported as “+++ (Compounds with a Cisplatin sensitization value of <0.02 μM are marked with “+++.”)”. COC1CCN(c2ccncc2NC(=O)c2c(N)nn3cc(Cl)cnc23)CC1 [I-N-73, 2-amino-6-chloro-N-(4-(4-methoxypiperidin-1-yl)pyridin-3-yl)pyrazolo[1,5-a]pyrimidine-3-carboxamide] was tested, and the “Cisplatin Sensitization Assay” value was “+++ (Compounds with a Cisplatin sensitization value of <0.02 μM are marked with “+++.”)”. For Nc1nn2cc(F)cnc2c1C(=O)Nc1cnccc1N1CCN2C(=O)COCC2C1 (stereo not shown) [I-N-136, 2-amino-6-fluoro-N-(4-(4-oxohexahydropyrazino[2,1-c][1,4]oxazin-8(1H)-yl)pyridin-3-yl)pyrazolo[1,5-a]pyrimidine-3-carboxamide], the “Cisplatin Sensitization Assay” value was “++ (Compounds with a Cisplatin sensitization value >0.02 μM but <0.2 μM are marked with “++.”)”. Nc1nn2cc(Cl)cnc2c1C(=O)Nc1cnccc1N1CCC(N2CCC23COC3)CC1 [I-N-109, N-(4-(4-(6-oxa-1-azaspiro[3.3]heptan-1-yl)piperidin-1-yl)pyridin-3-yl)-2-amino-6-chloropyrazolo[1,5-a]pyrimidine-3-carboxamide] was tested, and the “Cisplatin Sensitization Assay” value was “+++ (Compounds with a Cisplatin sensitization value of <0.02 μM are marked with “+++.”)”. Nc1nn2cc(Cl)cnc2c1C(=O)Nc1cnccc1OCCO [I-O-66, 2-amino-6-chloro-N-(4-(2-hydroxyethoxy)pyridin-3-yl)pyrazolo[1,5-a]pyrimidine-3-carboxamide] was tested, and the “Cisplatin Sensitization Assay” value was “+ (Compounds with a Cisplatin sensitization value >0.2 μM but <5 μM are marked with “+.”)”. With CC(C)N1CCN2CCN(c3ccncc3NC(=O)c3c(N)nn4cc(F)cnc34)CC2C1=O (stereo not shown) [I-N-245, 2-amino-6-fluoro-N-(4-(8-isopropyl-9-oxohexahydro-1H-pyrazino[1,2-a]pyrazin-2(6H)-yl)pyridin-3-yl)pyrazolo[1,5-a]pyrimidine-3-carboxamide] the “Cisplatin Sensitization Assay” value was “++ (Compounds with a Cisplatin sensitization value >0.02 μM but <0.2 μM are marked with “++.”)”. For Nc1nn2cc(F)cnc2c1C(=O)Nc1cnccc1-c1cccnc1 [I-C-15, N-([3,4′-bipyridin]-3′-yl)-2-amino-6-fluoropyrazolo[1,5-a]pyrimidine-3-carboxamide], the “Cisplatin Sensitization Assay” value was “++ (Compounds with a Cisplatin sensitization value >0.02 μM but <0.2 μM are marked with “++.”)”. CN1CCN(C(=O)N2CCC(c3ccncc3NC(=O)c3c(N)nn4cc(F)cnc34)CC2)CC1 [I-C-17, 2-amino-6-fluoro-N-(4-(1-(4-methylpiperazine-1-carbonyl)piperidin-4-yl)pyridin-3-yl)pyrazolo[1,5-a]pyrimidine-3-carboxamide] was tested, and the “Cisplatin Sensitization Assay” value was “++ (Compounds with a Cisplatin sensitization value >0.02 μM but <0.2 μM are marked with “++.”)”. For N#CCc1cnc2c(C(=O)Nc3cnccc3OC3COC3)c(N)nn2c1 [I-O-38, 2-amino-6-(cyanomethyl)-N-(4-(oxetan-3-yloxy)pyridin-3-yl)pyrazolo[1,5-a]pyrimidine-3-carboxamide], the “Cisplatin Sensitization Assay” value was “+++ (Compounds with a Cisplatin sensitization value of <0.02 μM are marked with “+++.”)”. Nc1nn2cc(Cl)cnc2c1C(=O)Nc1cnccc1N1CCNCC1 [I-N-88, 2-amino-6-chloro-N-(4-(piperazin-1-yl)pyridin-3-yl)pyrazolo[1,5-a]pyrimidine-3-carboxamide] was tested, and the “Cisplatin Sensitization Assay” value was “++ (Compounds with a Cisplatin sensitization value >0.02 μM but <0.2 μM are marked with “++.”)”. For Nc1nn2cc(F)cnc2c1C(=O)Nc1cncc(F)c1N1CCN(S(=O)(=O)C2COC2)CC1 [I-N-201], the “Cisplatin Sensitization Assay” value was “+++ (Compounds with a Cisplatin sensitization value of <0.02 μM are marked with “+++.”)”. For Nc1nn2cc(F)cnc2c1C(=O)Nc1cncc(F)c1N1CCS(=O)(=O)CC1 [I-N-250, 2-amino-N-(4-(1,1-dioxidothiomorpholino)-5-fluoropyridin-3-yl)-6-fluoropyrazolo[1,5-a]pyrimidine-3-carboxamide], the “Cisplatin Sensitization Assay” value was “++ (Compounds with a Cisplatin sensitization value >0.02 μM but <0.2 μM are marked with “++.”)”. In the case of C[N+]1([O-])CCN(C(=O)C2CCN(c3c(F)cncc3NC(=O)c3c(N)nn4cc(F)cnc34)CC2)CC1 [I-G-95, 4-(1-(3-(2-amino-6-fluoropyrazolo[1,5-a]pyrimidine-3-carboxamido)-5-fluoropyridin-4-yl)piperidine-4-carbonyl)-1-methylpiperazine 1-oxide], the “Cisplatin Sensitization Assay” value is reported as “+++ (Compounds with a Cisplatin sensitization value of <0.02 μM are marked with “+++.”)”. CN1CCCCC1C(=O)N1CCN(c2c(F)cncc2NC(=O)c2c(N)nn3cc(F)cnc23)CC1 (stereo not shown) [I-N-214, 2-amino-6-fluoro-N-(5-fluoro-4-(4-(1-methylpiperidine-2-carbonyl)piperazin-1-yl)pyridin-3-yl)pyrazolo[1,5-a]pyrimidine-3-carboxamide] was tested, and the “Cisplatin Sensitization Assay” value was “++ (Compounds with a Cisplatin sensitization value >0.02 μM but <0.2 μM are marked with “++.”)”. In the case of N#CC1CN(C(=O)C2CCN(c3ccncc3NC(=O)c3c(N)nn4cc(F)cnc34)CC2)C1 [I-G-81, 2-amino-N-(4-(4-(3-cyanoazetidine-1-carbonyl)piperidin-1-yl)pyridin-3-yl)-6-fluoropyrazolo[1,5-a]pyrimidine-3-carboxamide], the “Cisplatin Sensitization Assay” value is reported as “+++ (Compounds with a Cisplatin sensitization value of <0.02 μM are marked with “+++.”)”.
